Results on one substance are retold here after article PMC8145430 (Chemical Science, 2019).

This test deals with A549 cells. Kind of test: Confocal imaging of intracellular localization of fluorescein-labeled peptides. The class given is cell-based, human. Conditions: 1 μM, 10 minutes, 37°C, confocal images.

With “H-GLFDIIKKIAESF-K(FAM)K5SKTKC(Far)-OMe [FAM-Memrasin]”, the “tethering on the PM” value is “displays a clearer tethering on the PM”.
